According to ChEMBL document CHEMBL4311972, “Discovery of a benzothiophene-flavonol halting miltefosine and antimonial drug resistance in Leishmania parasites through the application of medicinal chemistry, screening and genomics” (Eur J Med Chem, 2019):

Assays:
Leishmania infantum = test: Antileishmanial activity against luciferase expressing intracellular amastigote stage of Leishmania infantum infected in human THP1 cells assessed as parasite growth inhibition measured after 48 to 72 hrs by steady-glo luciferase assay; assay type: functional, organism-based; settings: Leishmania infantum, THP-1; read-out: EC50
Trypanosoma brucei = test: Antitrypanosomal activity against Trypanosoma brucei bloodstream form assessed as parasite growth inhibition incubated for 72 hrs by resazurin dye based assay; assay type: functional, organism-based; settings: Trypanosoma brucei, 72 h; read-out: EC50
[1] = Cytotoxicity against human THP1 cells by MTT assay; assay type: cell-based, THP-1
[2] = Selectivity index, ratio of CC50 for human THP1 cells to EC50 for luciferase expressing intracellular amastigote stage of Leishmania infantum infected in human THP1 cells; assay type: toxicity, cell-based; settings: read-out: Ratio CC50/EC50
hERG (KCNH2) = hERG (KCNH2) (Homo sapiens, UniProt Q12809); test: Inhibition of human ERG at 10 uM incubated for 2 hrs by fluorescence polarization assay relative to control
CYP1A2 = molecular target: T1, CYP1A2 (Homo sapiens, UniProt P05177); test: Inhibition of human microsomal CYP1A2 expressed in baculovirus infected insect cells at 10 uM using luciferin-1A2 as substrate preincubated with enzyme/substrate mixture for 30 mins followed by further incubation with NADPH for 30 mins by CYP450 luciferase Glo assay relative to control; assay type: ADME; settings: probe luciferin-1A2
T1 sequence (P05177 whole entry): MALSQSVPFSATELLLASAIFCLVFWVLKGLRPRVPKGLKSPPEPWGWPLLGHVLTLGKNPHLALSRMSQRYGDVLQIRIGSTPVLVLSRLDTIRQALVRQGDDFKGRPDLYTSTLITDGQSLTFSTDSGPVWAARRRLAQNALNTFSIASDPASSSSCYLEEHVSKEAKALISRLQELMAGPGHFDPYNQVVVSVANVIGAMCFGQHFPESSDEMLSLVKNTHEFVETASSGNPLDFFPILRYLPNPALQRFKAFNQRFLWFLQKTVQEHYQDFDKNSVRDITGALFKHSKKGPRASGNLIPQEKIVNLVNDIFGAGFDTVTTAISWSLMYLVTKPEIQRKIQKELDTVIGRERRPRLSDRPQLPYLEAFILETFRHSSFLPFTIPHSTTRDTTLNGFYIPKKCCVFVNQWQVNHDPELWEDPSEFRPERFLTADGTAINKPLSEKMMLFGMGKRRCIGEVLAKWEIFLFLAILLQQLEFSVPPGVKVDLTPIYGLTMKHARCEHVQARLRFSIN

CYP2C9 = CYP2C9 (Homo sapiens, UniProt P11712); test: Inhibition of human microsomal CYP2C9 expressed in baculovirus infected insect cells at 10 uM using luciferin-H as substrate preincubated with enzyme/substrate mixture for 30 mins followed by further incubation with NADPH for 30 mins by CYP450 luciferase Glo assay relative to control; assay type: ADME; settings: probe luciferin-H
CYP2C19 = CYP2C19 (Homo sapiens, UniProt P33261); test: Inhibition of human microsomal CYP2C19 expressed in baculovirus infected insect cells at 10 uM using luciferin-H EGE as substrate preincubated with enzyme/substrate mixture for 30 mins followed by further incubation with NADPH for 30 mins by CYP450 luciferase Glo assay relative to control; assay type: ADME; settings: probe luciferin-H EGE
CYP2D6 = CYP2D6 (Homo sapiens, UniProt P10635); test: Inhibition of human microsomal CYP2D6 expressed in baculovirus infected insect cells at 10 uM using luciferin-ME as substrate preincubated with enzyme/substrate mixture for 30 mins followed by further incubation with NADPH for 30 mins by CYP450 luciferase Glo assay relative to control; assay type: ADME; settings: probe luciferin-ME
CYP3A4 = CYP3A4 (Homo sapiens, UniProt P08684); test: Inhibition of human microsomal CYP3A4 expressed in baculovirus infected insect cells at 10 uM using luciferin-IPA as substrate preincubated with enzyme/substrate mixture for 30 mins followed by further incubation with NADPH for 30 mins by CYP450 luciferase Glo assay relative to control; assay type: ADME; settings: probe luciferin-IPA
[3] = Cytotoxicity against human A549 cells assessed as cell growth at […] incubated for 48 hrs by Celltiter-Glo luminescence assay relative to control; assay type: cell-based; set-up: dose or concentration left out as unconfirmed; settings: read-out: Activity
786-0 = test: Mitochondrial toxicity in human 786-0 cells at 10 uM incubated with compound for 6 hrs followed by incubation with MitoTracker Red chloromethyl-X-rosamine dye for 45 mins by imaging analysis; assay type: cell-based; settings: 786-0, 6 h
[4] = Selectivity index, ratio of CC50 for human THP1 cells to EC50 for Trypanosoma brucei bloodstream form; assay type: toxicity; settings: read-out: Ratio CC50/EC50

Sequence of CYP3A4 (P08684 whole entry): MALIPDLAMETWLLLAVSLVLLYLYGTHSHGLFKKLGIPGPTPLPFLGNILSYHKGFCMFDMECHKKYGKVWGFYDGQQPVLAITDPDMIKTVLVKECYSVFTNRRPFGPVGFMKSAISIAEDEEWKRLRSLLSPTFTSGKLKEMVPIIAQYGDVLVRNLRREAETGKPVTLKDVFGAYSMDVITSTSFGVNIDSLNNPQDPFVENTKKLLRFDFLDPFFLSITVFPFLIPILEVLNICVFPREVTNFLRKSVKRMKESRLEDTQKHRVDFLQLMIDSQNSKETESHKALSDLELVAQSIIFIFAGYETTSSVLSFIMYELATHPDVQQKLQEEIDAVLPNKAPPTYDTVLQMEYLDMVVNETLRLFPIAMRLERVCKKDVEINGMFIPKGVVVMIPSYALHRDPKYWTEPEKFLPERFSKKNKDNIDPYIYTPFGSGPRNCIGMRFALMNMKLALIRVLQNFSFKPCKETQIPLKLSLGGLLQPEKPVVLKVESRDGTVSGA
Sequence of CYP2D6 (P10635 whole entry): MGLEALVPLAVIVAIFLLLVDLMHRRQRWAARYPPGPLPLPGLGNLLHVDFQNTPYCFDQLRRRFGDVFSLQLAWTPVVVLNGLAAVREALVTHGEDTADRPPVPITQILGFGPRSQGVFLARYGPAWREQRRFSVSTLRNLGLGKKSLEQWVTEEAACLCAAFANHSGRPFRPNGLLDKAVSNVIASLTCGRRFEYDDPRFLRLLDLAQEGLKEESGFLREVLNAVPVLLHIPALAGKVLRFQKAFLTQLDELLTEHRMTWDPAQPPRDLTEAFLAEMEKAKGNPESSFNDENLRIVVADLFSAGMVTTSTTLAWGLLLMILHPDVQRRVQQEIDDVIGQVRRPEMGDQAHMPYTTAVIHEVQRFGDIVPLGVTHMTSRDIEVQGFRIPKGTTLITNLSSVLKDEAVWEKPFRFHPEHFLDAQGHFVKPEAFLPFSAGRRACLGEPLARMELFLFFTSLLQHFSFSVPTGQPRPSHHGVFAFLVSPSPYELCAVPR
Sequence of CYP2C9 (P11712 whole entry): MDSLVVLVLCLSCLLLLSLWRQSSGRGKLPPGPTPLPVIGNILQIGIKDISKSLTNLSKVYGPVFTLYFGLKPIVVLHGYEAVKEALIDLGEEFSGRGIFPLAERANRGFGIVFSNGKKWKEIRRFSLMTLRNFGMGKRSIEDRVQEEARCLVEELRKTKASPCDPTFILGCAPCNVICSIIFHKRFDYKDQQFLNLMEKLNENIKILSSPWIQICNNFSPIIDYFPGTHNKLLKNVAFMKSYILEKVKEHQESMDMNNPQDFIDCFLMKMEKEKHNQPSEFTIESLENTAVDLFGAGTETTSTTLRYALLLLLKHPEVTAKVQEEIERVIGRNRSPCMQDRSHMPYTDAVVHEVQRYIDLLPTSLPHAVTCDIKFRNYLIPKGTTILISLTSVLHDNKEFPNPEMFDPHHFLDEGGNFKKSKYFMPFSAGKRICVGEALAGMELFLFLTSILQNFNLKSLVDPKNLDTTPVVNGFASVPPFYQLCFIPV
Sequence of hERG (KCNH2) (Q12809 whole entry): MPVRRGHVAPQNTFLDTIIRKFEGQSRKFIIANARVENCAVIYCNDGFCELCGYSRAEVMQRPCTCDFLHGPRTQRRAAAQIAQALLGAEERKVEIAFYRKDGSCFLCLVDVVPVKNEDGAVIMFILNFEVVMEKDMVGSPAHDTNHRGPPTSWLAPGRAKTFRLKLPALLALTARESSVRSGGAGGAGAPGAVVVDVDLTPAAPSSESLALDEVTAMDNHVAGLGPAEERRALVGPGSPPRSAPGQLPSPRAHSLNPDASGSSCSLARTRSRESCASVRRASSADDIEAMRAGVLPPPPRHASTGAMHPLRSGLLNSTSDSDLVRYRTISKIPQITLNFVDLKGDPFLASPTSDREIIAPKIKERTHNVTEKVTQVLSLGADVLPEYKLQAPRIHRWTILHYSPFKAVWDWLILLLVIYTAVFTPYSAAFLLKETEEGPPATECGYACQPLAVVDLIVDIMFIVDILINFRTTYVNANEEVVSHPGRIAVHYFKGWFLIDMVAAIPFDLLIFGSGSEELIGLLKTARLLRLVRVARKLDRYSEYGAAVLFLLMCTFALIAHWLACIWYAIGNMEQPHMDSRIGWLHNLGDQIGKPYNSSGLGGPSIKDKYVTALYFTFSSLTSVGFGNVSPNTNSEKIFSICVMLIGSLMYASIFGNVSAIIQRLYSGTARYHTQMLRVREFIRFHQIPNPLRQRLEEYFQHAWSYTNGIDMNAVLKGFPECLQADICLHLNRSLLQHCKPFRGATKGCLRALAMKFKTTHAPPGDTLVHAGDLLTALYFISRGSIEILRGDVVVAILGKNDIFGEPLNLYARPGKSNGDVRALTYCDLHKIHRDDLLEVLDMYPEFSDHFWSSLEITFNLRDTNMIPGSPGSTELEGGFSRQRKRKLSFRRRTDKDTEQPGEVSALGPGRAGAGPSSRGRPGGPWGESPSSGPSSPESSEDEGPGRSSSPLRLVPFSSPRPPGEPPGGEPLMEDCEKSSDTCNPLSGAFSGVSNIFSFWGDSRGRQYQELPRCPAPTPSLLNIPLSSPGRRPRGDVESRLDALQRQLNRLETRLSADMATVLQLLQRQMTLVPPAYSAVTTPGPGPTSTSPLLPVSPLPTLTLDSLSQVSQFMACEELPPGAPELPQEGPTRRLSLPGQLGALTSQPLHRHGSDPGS
Sequence of CYP2C19 (P33261 whole entry): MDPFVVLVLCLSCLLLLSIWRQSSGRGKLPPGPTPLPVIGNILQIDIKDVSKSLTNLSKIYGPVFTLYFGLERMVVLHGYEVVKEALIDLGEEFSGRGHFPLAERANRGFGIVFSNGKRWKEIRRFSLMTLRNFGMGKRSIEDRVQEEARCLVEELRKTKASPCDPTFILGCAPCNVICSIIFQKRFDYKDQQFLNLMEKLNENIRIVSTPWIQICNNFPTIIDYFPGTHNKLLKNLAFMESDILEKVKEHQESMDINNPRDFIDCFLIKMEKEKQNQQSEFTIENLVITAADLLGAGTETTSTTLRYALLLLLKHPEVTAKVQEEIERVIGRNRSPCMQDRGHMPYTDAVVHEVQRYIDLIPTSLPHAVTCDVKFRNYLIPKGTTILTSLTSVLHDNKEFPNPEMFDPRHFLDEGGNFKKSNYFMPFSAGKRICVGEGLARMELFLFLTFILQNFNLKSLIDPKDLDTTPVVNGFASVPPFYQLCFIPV

| Compound | EC50 (Trypanosoma brucei) | inhibition at 0.5 h, 10 µM (CYP1A2) | inhibition at 0.5 h, 10 µM (CYP2C9) | inhibition at 0.5 h, 10 µM (CYP2C19) | inhibition at 0.5 h, 10 µM (CYP2D6) | inhibition at 0.5 h, 10 µM (CYP3A4) | EC50 (Leishmania infantum) | CC50 [1] | selectivity ratio [2] | inhibition at 2 h, 10 µM (hERG (KCNH2)) | viability at 48 h [3] | Activity (786-0) | selectivity ratio [4] |
| --- | --- | --- | --- | --- | --- | --- | --- | --- | --- | --- | --- | --- | --- |
| O=c1c(O)c(-c2csc3ccccc23)oc2ccc(Cl)cc12 | 2.1 µM | 84.7% | 28.6% | 12% | 16.2% | 1.36% | 2.7 µM | 12.5 to 25 µM | 5 | -14% | 126% | -21.98% |  |
| O=c1c(O)c(-c2csc3ccccc23)oc2ccc(F)cc12 | 1.5 µM | 86.4% | 25.4% | 26% | 16.8% | 11.5% | 6 µM | 25 to 50 µM | 4 | -29.6% | 99.1% | -23.6% |  |
| COc1ccc2c(=O)c(O)c(-c3ccc4c(c3)OCO4)oc2c1 | 0.4 µM | 101% | 72.7% | 80.3% | 105% | 55.5% |  | > 100 µM |  | 9.49% | 43.2% | 6.41% | 250 |
| O=c1c(O)c(-c2c[nH]c3ccccc23)oc2ccc(O)cc12 | 3.1 µM | 101% | 40.2% | 47.9% | -0.42% | 18.7% |  | 50 to 100 µM |  | 53.2% | 5.87% | 17.38% | 16 |

The remaining molecules from weak to strong by EC50 (Trypanosoma brucei), led by results:

| EC50 (Trypanosoma brucei) | inhibition at 0.5 h, 10 µM (CYP1A2) | inhibition at 0.5 h, 10 µM (CYP2C9) | inhibition at 0.5 h, 10 µM (CYP2C19) | inhibition at 0.5 h, 10 µM (CYP2D6) | inhibition at 0.5 h, 10 µM (CYP3A4) | Compound | EC50 (Leishmania infantum) | CC50 [1] | selectivity ratio [2] | inhibition at 2 h, 10 µM (hERG (KCNH2)) | viability at 48 h [3] | Activity (786-0) | selectivity ratio [4] |
| --- | --- | --- | --- | --- | --- | --- | --- | --- | --- | --- | --- | --- | --- |
| 3.3 µM | 96.5% | 6.64% | 19.1% | 22.6% | 10.4% | Cc1ccc2oc(-c3ccc(C)s3)c(O)c(=O)c2c1 |  | 25 to 50 µM |  | 34.3% | 30.9% | -15.83% | 7 |
| 1.7 µM | 51.9% | -22.6% | 31.5% | 34% | 21.5% | O=c1c(O)c(-c2cccc(-c3ccc(O)c(O)c3)c2)oc2ccc(O)cc12 |  | 25 to 50 µM |  | 4.2% | 32.5% | -1.03% | 15 |
| 1.5 µM | 78% | 25.3% | 24.3% | 27.5% | -6.12% | O=c1c(O)c(-c2csc3ccccc23)oc2ccc(Br)cc12 | 2.7 µM | 25 to 50 µM | 9 | -60.1% | 119% | -22.7% |  |
| 1.3 µM | 90.7% | -229% | 69.6% | 30.8% | 42% | COc1ccc2oc(-c3csc4ccccc34)c(OC(C)=O)c(=O)c2c1 | 2.1 µM | 12.5 to 25 µM | 6 | -30% | 47.3% | -27.27% |  |
| 1.3 µM | 83.3% | 48.3% | 33.9% | 29.3% | 61.8% | CCCCC(=O)Oc1c(-c2csc3ccccc23)oc2ccc(OC)cc2c1=O | 2.4 µM | 12.5 to 25 µM | 5 | 1.12% | 12.4% | 0.75% |  |
